Reference: publication PMC9407119, “Improving the Specific Activity and Thermostability of Psychrophilic Xylosidase AX543 by Comparative Mutagenesis” (Foods, 2022)

Tests used:
Test in all cases: pNP release at […] nm, Lineweaver-Burk
Conditions in all cases: McIlvaine buffer, pH 6.0, 20 °C, 5 min, pNPX 0.1 to 2 mM
R4 = tested on: T1, R4; type: biochemical, Acremonium sp. WCQ6A; Humicola insolens
T1 construct: gene AX543; pET-28a(+), E. coli BL21(DE3), purified

R3 = tested on: T2, R3; type: biochemical, Acremonium sp. WCQ6A; Humicola insolens
T2 construct: gene AX543; pET-28a(+), E. coli BL21(DE3), purified

R7 = tested on: T3, R7; type: biochemical, Humicola insolens; Acremonium sp. WCQ6A
T3 construct: gene Xyl43A; Xyl43A with segment A4 (H232-D324) of AX543 at the C-terminus; pET-28a(+), E. coli BL21(DE3), purified

R8 = tested on: T4, R8; type: biochemical, Humicola insolens; Acremonium sp. WCQ6A
T4 construct: gene Xyl43A; Xyl43A with segment A3 (D161-K231) of AX543; pET-28a(+), E. coli BL21(DE3), purified

R2 = tested on: T5, R2; type: biochemical, Acremonium sp. WCQ6A; Humicola insolens
T5 construct: gene AX543; pET-28a(+), E. coli BL21(DE3), purified

R10 = tested on: T6, R10; type: biochemical, Humicola insolens; Acremonium sp. WCQ6A
T6 construct: gene AX543; Xyl43A with segment A1 (M1-K67) of AX543 at the N-terminus; pET-28a(+), E. coli BL21(DE3), purified

R6 = tested on: T7, R6; type: biochemical, Humicola insolens; Acremonium sp. WCQ6A
T7 construct: gene AX543; pET-28a(+), E. coli BL21(DE3), purified

R9 = tested on: T8, R9; type: biochemical, Humicola insolens; Acremonium sp. WCQ6A
T8 construct: gene Xyl43A; Xyl43A with segment A2 (T68-G160) of AX543; pET-28a(+), E. coli BL21(DE3), purified

R1 = tested on: T9, R1; type: biochemical, Acremonium sp. WCQ6A; Humicola insolens
T9 construct: gene AX543; pET-28a(+), E. coli BL21(DE3), purified

R5 = tested on: T10, R5; type: biochemical, Acremonium sp. WCQ6A; Humicola insolens
T10 construct: gene AX543; pET-28a(+), E. coli BL21(DE3), purified

Km (R4): 1840 ± 106 µM
Km (R3): 1000 ± 25 µM
Km (R7): 1630 ± 60 µM
Km (R8): 1300 ± 192 µM
Km (R2): 1170 ± 33 µM
Km (R10): 1870 ± 44 µM
Km (R6): 1190 ± 34 µM
Km (R9): 1320 ± 59 µM
Km (R1): 1250 ± 48 µM
Km (R5): 1210 ± 56 µM
SMILES: O=[N+]([O-])c1ccc(O[C@@H]2OC[C@@H](O)[C@H](O)[C@H]2O)cc1 [4-nitrophenyl-β-D-xylopyranoside]
